From ChEMBL document CHEMBL6087474, “Discovery of an Efficacious RET PROTAC Degrader with Enhanced Antiproliferative Activity against Resistant Cancer Cells Harboring RET Solvent-Front Mutations” (J Med Chem, 2025)

How the values were obtained:
[1] = Bioavailability in male ICR mouse at 10 mg/kg, ip measured after 24 hrs by LC-MS/MS analysis; type: ADME, organism-based; settings: in vivo
BaF3 [2] = assay: Antiproliferative activity against mouse BaF3 cells stably expressing KIF5B-RET fusion protein incubated for 72 hrs by CCK-8 assay; type: functional, cell-based; settings: BaF3, 72 h
BaF3 [3] = assay: Antiproliferative activity against mouse BaF3 cells stably expressing CCDC6-RET-V804M mutant incubated for 72 hrs by CCK-8 assay; type: functional, cell-based; settings: BaF3, 72 h
[4] = Effect on RET protein level in mouse BaF3 cells stably expressing KIF5B-RET-V804M mutant assessed as fold change at 100 nM measured after 6 hrs by Western blot analysis (reference value: 1); type: functional
BaF3 [5] = assay: Antitumor activity against mouse BaF3 cells stably expressing KIF5B-RET-G810C mutant implanted in male BALB/c mouse model assessed as tumor growth inhibition at 10 mg/kg, ip administered daily for 14 days relative to control; type: functional; settings: BaF3, 336 h, time 14 day, read-out: TGI
[6] = Effect on RET protein level in mouse BaF3 cells stably expressing KIF5B-RET-G810R mutant assessed as fold change at 33.3 nM measured after 6 hrs by Western blot analysis (reference value: 1); type: functional
[7] = Effect on Shc protein level in mouse BaF3 cells stably expressing KIF5B-RET-V804M mutant assessed as fold change at 100 nM measured after 6 hrs by Western blot analysis (reference value: 1); type: functional
[8] = system: Kinesin-1 heavy chain/ Tyrosine-protein kinase receptor RET (Homo sapiens), P07949+P33176 [G810C]; assay: In vivo PROTAC activity at CRBN/KIF5B-RET-G810C mutant in male BALB/c mouse model implanted with mouse BaF3 cells stably expressing KIF5B-RET-G810C mutant assessed as induction of RET degradation in tumor at 30 mg/kg, ip measured after 3 days by Western blotting analysis relative to control; type: functional, organism-based; settings: time 3.0 day
BaF3 [9] = assay: PROTAC activity at CRBN/KIF5B-RET (unknown origin) expressed in mouse BaF3 cells assessed as induction of RET degradation at 1000 nM measured after 6 hrs by Western blot analysis relative to control; type: cell-based
[10] = Induction of apoptosis in mouse BaF3 cells stably expressing KIF5B-RET-G810C mutant assessed as viable cells at 33.3 nM measured after 48 hrs by Annexin V-FITC/7-AAD staining based flow cytometric analysis (reference value: 86.58 %); type: functional; settings: read-out: Activity
[11] = Induction of apoptosis in mouse BaF3 cells stably expressing wildtype KIF5B-RET fusion protein assessed as viable cells at 11.1 nM measured after 48 hrs by Annexin V-FITC/7-AAD staining based flow cytometric analysis (reference value: 86.65 %); type: functional; settings: read-out: Activity
[12] = Induction of apoptosis in mouse BaF3 cells stably expressing wildtype KIF5B-RET fusion protein assessed as early apoptotic cells at 11.1 nM measured after 48 hrs by Annexin V-FITC/7-AAD staining based flow cytometric analysis (reference value: 9.92 %); type: functional
[13] = Effect on Shc protein level in mouse BaF3 cells stably expressing KIF5B-RET-G810C mutant assessed as fold change at 33.3 nM measured after 6 hrs by Western blot analysis (reference value: 1); type: functional
[14] = Induction of apoptosis in mouse BaF3 cells stably expressing KIF5B-RET-G810C mutant assessed as viable cells at 100 nM measured after 48 hrs by Annexin V-FITC/7-AAD staining based flow cytometric analysis (reference value: 86.58 %); type: functional; settings: read-out: Activity
BaF3 [15] = assay: PROTAC activity at CRBN/KIF5B-RET-G810R mutant (unknown origin) expressed in mouse BaF3 cells assessed as induction of RET degradation at 300 nM measured after 6 hrs by Western blot analysis relative to control; type: cell-based; settings: Homo sapiens
[16] = Effect on Shc protein level in mouse BaF3 cells stably expressing KIF5B-RET-G810R mutant assessed as fold change at 33.3 nM measured after 6 hrs by Western blot analysis (reference value: 1); type: functional
[17] = Induction of apoptosis in mouse BaF3 cells stably expressing KIF5B-RET-G810C mutant assessed as late apoptotic cells at 100 nM measured after 48 hrs by Annexin V-FITC/7-AAD staining based flow cytometric analysis (reference value: 1.96 %); type: functional
[18] = Induction of apoptosis in mouse BaF3 cells stably expressing wildtype KIF5B-RET fusion protein assessed as late apoptotic cells at 33.3 nM measured after 48 hrs by Annexin V-FITC/7-AAD staining based flow cytometric analysis (reference value: 1.03 %); type: functional
BaF3 [19] = assay: Antitumor activity against mouse BaF3 cells stably expressing KIF5B-RET-G810C mutant implanted in male BALB/c mouse model assessed as reduction in tumor weight at 30 mg/kg, ip administered daily for 14 days relative to control; type: functional; parameters: scale not given: the % may be the effect or the level left; settings: time 14 day
[20] = Effect on RET protein level in mouse BaF3 cells stably expressing KIF5B-RET-G810C mutant assessed as fold change at 33.3 nM measured after 6 hrs by Western blot analysis (reference value: 1); type: functional
[21] = Induction of apoptosis in mouse BaF3 cells stably expressing wildtype KIF5B-RET fusion protein assessed as necrotic cells at 33.3 nM measured after 48 hrs by Annexin V-FITC/7-AAD staining based flow cytometric analysis (reference value: 2.40 %); type: functional
[22] = Induction of apoptosis in mouse BaF3 cells stably expressing KIF5B-RET-G810C mutant assessed as early apoptotic cells at 900 nM measured after 48 hrs by Annexin V-FITC/7-AAD staining based flow cytometric analysis (reference value: 8.57 %); type: functional
[23] = Induction of apoptosis in mouse BaF3 cells stably expressing wildtype KIF5B-RET fusion protein assessed as early apoptotic cells at 33.3 nM measured after 48 hrs by Annexin V-FITC/7-AAD staining based flow cytometric analysis (reference value: 9.92 %); type: functional
[24] = Effect on RET protein level in mouse BaF3 cells stably expressing KIF5B-RET-G810R mutant assessed as fold change at 300 nM measured after 6 hrs by Western blot analysis (reference value: 1); type: functional
[25] = Effect on RET protein level in mouse BaF3 cells stably expressing KIF5B-RET-V804M mutant assessed as fold change at 11.1 nM measured after 6 hrs by Western blot analysis (reference value: 1); type: functional
BaF3 [26] = assay: Antiproliferative activity against mouse BaF3 cells stably expressing KIF5B-RET-G810C mutant incubated for 72 hrs by CCK-8 assay; type: functional, cell-based; settings: BaF3, 72 h
BaF3 [27] = assay: Antiproliferative activity against mouse BaF3 cells stably expressing CCDC6-RET-G810C mutant incubated for 72 hrs by CCK-8 assay; type: functional, cell-based; settings: BaF3, 72 h
[28] = Effect on RET protein level in mouse BaF3 cells stably expressing wildtype KIF5B-RET assessed as fold change at 33.3 nM measured after 6 hrs by Western blot analysis (reference value: 1); type: functional
[29] = Induction of apoptosis in mouse BaF3 cells stably expressing wildtype KIF5B-RET fusion protein assessed as late apoptotic cells at 300 nM measured after 48 hrs by Annexin V-FITC/7-AAD staining based flow cytometric analysis (reference value: 1.03 %); type: functional

## COc1ccc(CN2C3CC2CN(c2ccc(-c4cc(-c5cnn(C6CCN(CCCCCC#Cc7cccc8c7CN(C7CCC(=O)NC7=O)C8=O)CC6)c5)cn5ncc(C#N)c45)cn2)C3)cn1 (centres undefined)
[1]
  bioavailability: 17.3%
BaF3 [2]
  IC50: 10 nM
BaF3 [3]
  IC50: 10 nM
[4]
  fold change (FC): 0.1
BaF3 [5]
  inhibition in vivo at 10 mg/kg: 31.6%
[6]
  fold change (FC): 0.9
[7]
  fold change (FC): 0.9
[8]
  Activity: 55.3%
BaF3 [9]
  Activity: 74%
[10]
  viability at 0.0333 µM: 85.5%
[11]
  viability at 0.0111 µM: 83.8%
[12]
  Activity: 11.31%
[13]
  fold change (FC): 1
[14]
  viability at 0.1 µM: 75.4%
BaF3 [15]
  Activity: 43%
[16]
  fold change (FC): 0.9
[17]
  Activity: 2.61%
[18]
  Activity: 3.02%
BaF3 [19]
  Activity: 34.4%
[20]
  fold change (FC): 0.6
[21]
  Activity: 1.79%
[22]
  Activity: 54.08%
[23]
  Activity: 20.96%
[24]
  fold change (FC): 0.6
[25]
  fold change (FC): 0.7
BaF3 [26]
  IC50: 50 nM
BaF3 [27]
  IC50: 40 nM
[28]
  fold change (FC): 0.3
[29]
  Activity: 1%
